Source: ChEMBL document CHEMBL5634096, “Design, synthesis and bioevaluation of PI3Kα-selective inhibitors as potential colorectal cancer drugs” (Eur J Med Chem, 2023)
Activity calls are given as the source filed them. The rule behind the calls is not given here.

Tests used:
SW-620 = experiment: Antiproliferative activity against human SW-620 cells assessed as reduction in cell viability incubated for 24 to 48 hrs by CCK-8 assay; type: functional, cell-based
[1] = Metabolic stability in Sprague-Dawley rat liver microsomes assessed as half life at 5 ug/ml incubated for 1 hr in presence of NADPH by LC-MS/MS analysis; type: ADME, Microsome; details: dose 5 µg/ml
HCT-116 = experiment: Antiproliferative activity against human HCT-116 cells assessed as inhibition of colony formation at 3 to 12 uM incubated for 48 hrs by crystal violet staining based assay; type: functional, cell-based; details: dose 3-12 µM
[2] = MRT (0 to t) in Sprague-Dawley rat at 5 mg/kg, iv measured upto 24 hrs by LC-MS analysis; type: ADME, organism-based; details: in vivo
PaTu 8988t = experiment: Antiproliferative activity against human PaTu 8988t cells assessed as reduction in cell viability at 10 uM incubated for 24 to 48 hrs by CCK-8 assay; type: functional, cell-based; details: time lower […], time upper 48.0 hrs

Nc1nc2cc(-c3ccc4ncc(N5C[C@@H]6OCCO[C@@H]6C5)nc4c3)ccc2o1
IC50 (SW-620): 9.85 µM | half-life at 5 ug/ml [1]: 3.61 h | Activity (HCT-116): Active | MRT last at 24 h [2]: 1.7 h | Activity (PaTu 8988t): Active
